Experimental data taken from the NIST ThermoML archive (doi:10.1016/j.jct.2010.12.012).
“And” between values parts separate entries of the source, which are not always exact repeats. Identical values can stand only once. Numbers after ± are expanded uncertainties.

Legend:
[1] = 298.15 K; 101.33 kPa; Liquid; Vibrating tube method
[2] = refractive index (Na D-line) (dimensionless); conditions: 298.15 K; 101.33 kPa; Liquid; Standard Abbe refractometry
[3] = xn = mol fraction of the nth substance listed; conditions: 298.15 K, 101 kPa, Liquid, Vibrating tube method

SMILES	mass density [1] [kg/m3]	refractive index [2]	other results
Cc1ccccc1 [toluene]	862.17 ± 0.1	1.49399 ± 0.00031	–
CCCCn1cc[n+](C)c1.COS(=O)(=O)[O-] [1-butyl-3-methylimidazolium methyl sulfate]	1212.59 ± 0.41	1.47792 ± 0.00037	–
CCCCn1cc[n+](C)c1.COS(=O)(=O)[O-] [1-butyl-3-methylimidazolium methyl sulfate] + CC1CCCCC1	–	–	mass density ([3]; x2 = 0.028): 1207.3 ± 1.3 kg/m3
CCCCn1cc[n+](C)c1.COS(=O)(=O)[O-] [1-butyl-3-methylimidazolium methyl sulfate] + Cc1ccccc1	–	–	mass density ([3]; x2 = 0.328): 1151 ± 1.2 kg/m3 and 1153.43 ± 1.2 kg/m3
C1CCCCCCC1 [cyclooctane] + CCCCn1cc[n+](C)c1.COS(=O)(=O)[O-]	–	–	mass density ([3]; x1 = 0.02): 1207.63 ± 1.3 kg/m3
C1=CCCCC1 [cyclohexene] + CCCCn1cc[n+](C)c1.COS(=O)(=O)[O-]	–	–	mass density ([3]; x1 = 0.071): 1201.85 ± 1.9 kg/m3
CCCCn1cc[n+](C)c1.COS(=O)(=O)[O-] [1-butyl-3-methylimidazolium methyl sulfate] + C1CCCCC1	–	–	mass density ([3]; x2 = 0.039): 1204.53 ± 1.3 kg/m3

Second part, led by results:

mass density [1] [kg/m3]	refractive index [2]	SMILES	other results
805.69 ± 0.24	1.44378 ± 0.00037	C1=CCCCC1 [cyclohexene]	–
765.02 ± 0.24	1.42062 ± 0.00037	CC1CCCCC1 [methylcyclohexane]	–
831.47 ± 0.24	1.45598 ± 0.00037	C1CCCCCCC1 [cyclooctane]	–
773.8 ± 0.24	1.4236 ± 0.00037	C1CCCCC1 [cyclohexane]	–
